According to BindingDB's records for doi:10.1016/j.ejmech.2021.113607 (Institute of Medical Biology Pas, 2021):
pKi: −log10 of the molar value.

Biological target: T1, Adenosine receptor A2b (Homo sapiens, UniProt P29275)
T1 sequence (P29275 whole entry): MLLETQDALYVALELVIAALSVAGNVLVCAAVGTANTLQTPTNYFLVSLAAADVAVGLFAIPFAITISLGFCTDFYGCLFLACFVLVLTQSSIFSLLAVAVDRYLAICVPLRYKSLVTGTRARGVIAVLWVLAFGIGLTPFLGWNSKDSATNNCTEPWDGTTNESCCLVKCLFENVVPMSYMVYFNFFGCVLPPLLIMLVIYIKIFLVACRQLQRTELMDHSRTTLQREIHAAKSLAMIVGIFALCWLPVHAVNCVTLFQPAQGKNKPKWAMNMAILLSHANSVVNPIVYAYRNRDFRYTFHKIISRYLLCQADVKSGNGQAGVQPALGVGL
Assay: Displacement of [3H]DPCPX from human adenosine A2B receptor expressed in HEK cell membrane incubated for 30 mins by microplate beta scintillation counting based radioligand inhibition assay

- pKi: 5.48
SMILES: CCNC(=O)[C@H]1O[C@@H](n2cnc3c(NCCCCc4ccccc4)ncnc32)[C@H](O)[C@@H]1O
